Measurements as given in doi:10.1101/2024.02.29.582594, “Hachiman is a genome integrity sensor” (bioRxiv, 2024).

Target: T1, HamB (Escherichia coli, UniProt A0A426EXV0)
T1 construct: gene DU321_04165; full-length HamB alone, N-terminal 10xHis-MBP-TEV, tag cut with TEV; expressed in E. coli BL21-AI
T1 sequence (A0A426EXV0 1-1174): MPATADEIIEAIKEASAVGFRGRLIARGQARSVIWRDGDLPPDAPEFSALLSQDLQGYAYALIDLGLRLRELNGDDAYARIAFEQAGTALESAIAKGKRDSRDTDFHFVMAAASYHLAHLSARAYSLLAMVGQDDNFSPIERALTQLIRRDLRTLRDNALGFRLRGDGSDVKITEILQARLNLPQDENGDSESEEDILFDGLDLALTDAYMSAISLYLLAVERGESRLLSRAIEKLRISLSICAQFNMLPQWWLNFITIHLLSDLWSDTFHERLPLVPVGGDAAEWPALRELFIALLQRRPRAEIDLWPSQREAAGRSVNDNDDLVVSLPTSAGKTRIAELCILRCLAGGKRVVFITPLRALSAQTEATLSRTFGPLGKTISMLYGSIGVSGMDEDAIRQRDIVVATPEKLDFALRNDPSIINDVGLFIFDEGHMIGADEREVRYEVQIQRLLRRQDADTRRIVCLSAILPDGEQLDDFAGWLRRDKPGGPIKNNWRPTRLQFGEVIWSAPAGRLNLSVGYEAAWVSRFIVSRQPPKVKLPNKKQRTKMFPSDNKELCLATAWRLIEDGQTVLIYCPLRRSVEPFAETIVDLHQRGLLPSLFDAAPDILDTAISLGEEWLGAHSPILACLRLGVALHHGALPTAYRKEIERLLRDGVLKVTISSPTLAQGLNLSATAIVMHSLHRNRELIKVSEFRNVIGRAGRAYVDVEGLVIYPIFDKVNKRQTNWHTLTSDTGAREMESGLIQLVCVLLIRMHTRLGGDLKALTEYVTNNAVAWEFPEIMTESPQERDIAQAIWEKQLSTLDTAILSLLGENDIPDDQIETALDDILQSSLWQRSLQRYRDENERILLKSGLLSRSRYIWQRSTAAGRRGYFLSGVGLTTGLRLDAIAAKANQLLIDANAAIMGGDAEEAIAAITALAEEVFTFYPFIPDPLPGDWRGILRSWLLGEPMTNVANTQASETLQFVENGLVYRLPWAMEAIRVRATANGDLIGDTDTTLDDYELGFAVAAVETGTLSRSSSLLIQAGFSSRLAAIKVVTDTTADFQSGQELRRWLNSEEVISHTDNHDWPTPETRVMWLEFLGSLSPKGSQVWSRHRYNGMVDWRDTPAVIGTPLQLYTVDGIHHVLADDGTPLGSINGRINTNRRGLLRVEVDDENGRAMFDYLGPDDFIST
Assay: malachite green phosphate release assay
Type: biochemical
Settings: 40 nM HamB, 100 nM ssDNA, 1 mM ATP, 2 mM MgSO4, pH 8.8, 37 °C, 30 min

## Nc1ncnc2c1ncn2[C@@H]1O[C@H](COP(=O)(O)OP(=O)(O)OP(=O)(O)O)[C@@H](O)[C@H]1O [ATP]
  malachite green phosphate release assay: we found strong HamB ATPase activity in the presence of single-stranded DNA
